Laboratory results as given in article PMC10842878 (Peptides, 2023).
“Also recorded” adds a separate entry of the source.

Legend:
[1] = H2O; cited from earlier work
[2] = assay type: physicochemical; settings: 150 μM peptide, 50 mM sodium phosphate buffer pH 7, 37°C, 2 weeks

Molecule	Water solubility [1] [mg/mL]	Chemical stability (% of original concentration retained in solution) [2]
C/C1=C2/[N-]C([C@H](CC(N)=O)[C@@]2(C)CCC(=O)NCC(C)O)[C@]2(C)N=C(/C(C)=C3N=C(/C=C4N=C1[C@@H](CCC(N)=O)C\4(C)C)[C@@H](CCC(N)=O)[C@]\3(C)CC(N)=O)[C@@H](CCC(N)=O)[C@]2(C)CC(N)=O.[C-]#N.[C-]#N.[Co] (some centres unmarked) [Cbi, dicyanocobinamide]	400	–
HSQGTFTSDYSKYLDSrRAQDFVQWLMNTZ [compound 7]	–	highest chemical stability; also recorded: highest % concentration retained
